The test system of this test is DLD1 BRCA2 -/- cells. As to the kind of experiment: Western blot γ-H2AX phosphorylation and PARP cleavage. Format: cell-based. Particulars: versus parental. On the procedure: Cells were harvested using—cell scraper and washed in phosphate-buffered saline (PBS), then lysed in 1 x RIPA Lysis and Extraction Buffer (Thermo Scientific #89901) containing Halt™ Protease and Phosphatase Inhibitor Cocktail (Thermo Scientific #1861281). Protein concentration was measured using Pierce™ BCA Protein Assay Kit (Thermo Scientific #23225). The proteins were separated by electrophoresis using 4–20% Mini-PROTEAN® TGX™ Precast Protein Gels (Bio-Rad #4561096) and transferred to Immuno Blot PVDF Membrane (Bio-Rad #1620177). Membranes were blocked using 5%-milk-TBST (or 5%-BSA-TBST for phospho-proteins) for 1 h at room temperature and washed with TBST prior to antibody incubation. Primary antibodies were incubated overnight at 4 °C in 1%-milk-TBST (or 2%-BSA-TBST for phospho-proteins). γ-H2AX (p Ser139) was detected using antibody (NOVUS #NB100-384) diluted 1:2000. Cleaved PARP was detected using antibody (Cell Signaling #9546) diluted 1:2000. Gapdh was detected using Gapdh (14C10) rabbit monoclonal antibody (Cell Signaling Technology #2118) diluted 1:4000. Membranes were washed with TBST prior to secondary antibody incubation for 1 h at room temperature using respective Goat anti-Rabbit IgG (H + L) HRP (Invitrogen #31466) or Goat anti-Mouse IgG (H + L) HRP (Invitrogen #31430)–tagged Secondary Antibody diluted 1:5000 in 2%-milk-TBST. […]

From publication PMC10997755, “Discovery of a small-molecule inhibitor that traps Polθ on DNA and synergizes with PARP inhibitors” (Nature Communications, 2024) come the findings set out here.

For the molecule `CN(C(=O)Oc1c(N2CCN(CCO)C2=O)cc(C(F)(F)F)cc1C(F)(F)F)c1ccc(F)cc1` [RTx-161], the PARP cleavage entry is “selectively induced PARP cleavage”.
